Test results: patent US8735622B2, “Histone demethylase inhibitors and methods for using the same” (The Regents of the University of Colorado, a body corporate, priority 2011, dated 2014)
Entries after “also recorded” stand apart in the source; their conditions may differ. Read-outs that look alike come from different tables or passages of the source.

Experiments:
[1] = system: H3K4me3 and H3K9me3 levels in KYSE150 cells; assay: Quantitative immunostaining assay of H3K4me3 and H3K9me3 in KYSE150 cells; assay type: cell-based, human; details: for EC50: Homo sapiens, KYSE-150, 48 hours, immunostaining image quantification
Method: (§1) To quantify the cellular activity of methylstat, a quantitative image-based assay was used. […] The cellular effects of methylstat were also cell type-specific.
(§2) For quantified immunostaining experiments, KYSE150 or MCF7 cells were seeded in a 96-well plate at 10,000 cells per well and incubated at 37° C. for 24 hours. The medium was replaced and methylstat in DMSO was added at the concentration as indicated. After incubation for another 48 hours, immunostaining procedure was performed as described above using anti-H3K9me3 or anti-H3K4me3 primary antibody. Fluorescent images of cells were acquired by a Nikon Eclipse 90i fluorescence microscope and analyzed using the Cell Scoring analysis module of MetaMorph 7.0 software.

JMJD2A = target: T1, JMJD2A (Homo sapiens, UniProt O75164); assay: JMJD2A enzyme activity assay (DELFIA); assay type: biochemical; details: in vitro
T1 construct: Recombinant protein preparation of GASC1(1-420), JMJD2A (1-420) and LSD1 (full-length); made in house; host or cells: Escherichia coli BL-21
T1 sequence (O75164 1-420): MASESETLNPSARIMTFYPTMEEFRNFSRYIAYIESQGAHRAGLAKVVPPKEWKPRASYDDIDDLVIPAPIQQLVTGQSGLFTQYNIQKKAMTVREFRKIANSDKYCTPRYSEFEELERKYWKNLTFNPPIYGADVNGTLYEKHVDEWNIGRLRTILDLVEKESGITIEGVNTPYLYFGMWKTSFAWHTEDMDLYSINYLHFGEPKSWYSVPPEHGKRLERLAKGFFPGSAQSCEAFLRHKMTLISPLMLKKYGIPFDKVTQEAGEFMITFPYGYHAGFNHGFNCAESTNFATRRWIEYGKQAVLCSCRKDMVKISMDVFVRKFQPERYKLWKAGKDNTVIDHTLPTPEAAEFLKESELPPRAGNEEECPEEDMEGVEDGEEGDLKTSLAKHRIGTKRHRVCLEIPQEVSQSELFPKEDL
Method: In order to evaluate the inhibitory activity of 1 in vitro, a GST-fusion protein of the catalytic N-terminus of human GASC1 (gene amplified in squamous cell carcinoma 1) corresponding to amino acid 1-420 was cloned and purified. […] To evaluate the enzyme specificity of 1, the activity of 1 was examined against several other related enzymes in vitro.
The enzyme activity assays for GASC1 and JMJD2A were established on the DELFIA platform. DELFIA assays were performed in white, opaque 384-well plates coated with Streptavidin (Perkin Elmer). GST-GASC1(1-420) was diluted to 200 ng/well in 20 mM Tris HCl pH 8.5/2 mM glutathione and added in a volume of 20 μL. Blank wells received Tris/glutathione buffer only. Test compounds were diluted in DMSO and […] was pinned into the wells. Blank and control wells received only compound buffer. The reactions were initiated by the addition of 500 nM biotin-H3(1-20)K9me3 substrate, 10 μM FeSO4, 100 μM alpha-ketoglutarate in a volume of 20 μL, and incubated at room temperature for 60 minutes. The plates were washed 3 times with 100 μL of Wash Buffer (50 mM Tris pH 7.4, 150 mM NaCl, 0.05% Tween 20, 0.2% BSA). […] Time resolved fluorescence was measured after 45 minutes on an Envision Microplate Imager (Perkin Elmer Life Sciences) with 400 μs delay, excitation at 360 nm, and emission at 620 nm.

[2] = system: prolyl hydroxylases (PHDs); assay: Cellular HIF-1α level (prolyl hydroxylase specificity) in MCF7 cells; assay type: cell-based, human; details: 24 hours, methylstat up to 15 μM, DFO 150 μM, DMOG 1 and 2 mM
Description: To assess the specificity of methylstat in vivo, another iron(II)- and α-ketoglutarate-dependent dioxygenases, prolyl hydroxylases (PHDs), was examined. PHDs have been reported to regulate normoxic inactivation of hypoxia-inducible factors (HIFs) by hydroxylating specific prolyl residues of HIFs. […] DMOG and DFO have been used to mimic hypoxia conditions by inhibiting PHDs in vivo. […] Similar results were also observed in HeLa cells (see FIG. 7).
Total lysates of cells were generated from the cells lysed in CelLytic M Cell Lysis (Sigma) with protease inhibitor cocktail (Sigma), mixed with 2×LSB buffer (100 mM Tris-HCl pH 6.8, 200 mM DTT, 4% SDS, 20% glycerol and 0.2% bromophenol blue) and boiled for 5 min before SDS-PAGE. BCA assay (Thermo) was applied for protein qualification.

LSD1 = target: T2, LSD1 (Homo sapiens, UniProt O60341); assay: LSD1 formaldehyde dehydrogenase coupled assay; assay type: biochemical; details: in vitro
T2 construct: LSD1 (full-length) was expressed as glutathione S-transferase (GST) fusions; made in house; host or cells: Escherichia coli BL-21
Method: LSD1 activity was measured in a formaldehyde dehydrogenase coupled assay. 15 μL enzyme mix containing 2.4 μg GST-LSD1 in 20 mM TRIS pH 8.5, 1 mM NAD, 1.5 mU formaldehyde dehydrogenase, 0.5 mM glutathione was added, followed by pin transfer of 100 nL compound. Then reactions were started by addition of 15 μL 75 μM H3(1-20)K4me2 peptide, and NADH fluorescence was measured on a Envision Microplate Imager (Perkin Elmer Life Sciences) with excitation at 345 nm and emission at 460 nm, integration for 400 ms at 10 min and 80 min after peptide addition.

[3] = system: H3K4me3 and H3K9me3 levels in MCF7 cells; assay: Quantitative immunostaining assay of H3K4me3 and H3K9me3 in MCF7 cells; assay type: cell-based, human; details: for EC50: Homo sapiens, 48 hours, immunostaining image quantification
Method: as §1, §2

EC50 ([1]; read-out: EC50 for H3K4me3): 10.3 µM | EC50 ([1]; read-out: EC50 for H3K9me3): 8.6 µM | inhibition of enzymatic activity of JMJD2A (JMJD2A): did not significantly inhibit | inhibition of FAD-dependent HDM LSD1 (LSD1): did not significantly inhibit | EC50 ([3]; read-out: EC50 for H3K4me3): 6.7 µM | EC50 ([3]; read-out: EC50 for H3K9me3): 6.3 µM
SMILES: COC(=O)/C=C/C(=O)N(O)CCCCNCc1ccc(COC(=O)Nc2cccc3ccccc23)cc1 [methylstat]
increase of the H3K9me3 mark [1]: 10.8 fold | cellular HIF-1α levels / prolyl hydroxylase inhibition [2]: did not affect the cellular HIF-1α levels; also recorded: did not significantly inhibit prolyl hydroxylases | increase of the H3K9me3 mark [3]: 4.5 fold
